# Tests used:
# Assay type in all cases: biochemical
# [1] = molecular target: MMP-8 (Homo sapiens, UniProt P22894); experiment: MMP-8 enzyme activity, quenched fluorigenic substrate, 96 well plate; conditions: read-out: MMP-8 Ki app
# Protocol: The MMP-8 data was determined according to Knight C. G. et al., Febs Lett, 296, 263-266 (1992), “A novel coumarin-labelled peptide for sensitive continuous assays of the matrix metalloproteinases” in the modification of K. U. Weithmann et al., Inflamm. Res. 46 (7), 246-252 (1997), “Effects of tiaprofenic acid on urinary pyridinium crosslinks in adjuvant arthritic rats: Comparison and doxycycline effects on human matrix metalloproteinases and cellular cytokine generation in vitro” as follows:
# Enzyme activity of MMP was determined in 96 well titer plate format in a luminescence spectrometer (LS 50B, Perkin Elmer, Langen, FRG), using the quenched fluorigenic substrate 7-methoxycoumarin-4-yl) acetyl-pro-leu-gly-leu-3-(2′,4′-dinitrophenyl)-L-2,3-diaminopropionyl-ala-arg-NH2 (λex=328 nm, λem=393 nm), available from Bachem, Heidelberg, FRG. Each well contained: 70 μl buffer (0.1 mol/l tris/HCl, pH=7.5; 0.1 mol/l NaCl; 0.01 mol/l CaCl2,0.05% Brij 35™), 10 μl enzyme, and 10 μl drug in 10%DMSO. After preincubation for 15 min at room temperature the reaction was started by addition of 10 μl substrate (1 mmol/l in 10% DMSO). Initial velocity of enzymatic reaction was determined without drug (=100%) or, resp. with different drug concentrations.
# [2] = molecular target: T1, MMP-2 (Homo sapiens, UniProt P08253); experiment: Determination of inhibition constant (Ki) for MMP-2, fluorogenic substrate; conditions: footnote: results are identical for MMP-1, MMP-2, MMP-3, MMP-13 and MMP-14, read-out: MMP Ki app
# T1 construct: made in house; host or cells: Pichia pastoris (vector pHIL-D2; strains KM71 and SMD1168; clone 24S)
# T1 sequence (P08253 110-660): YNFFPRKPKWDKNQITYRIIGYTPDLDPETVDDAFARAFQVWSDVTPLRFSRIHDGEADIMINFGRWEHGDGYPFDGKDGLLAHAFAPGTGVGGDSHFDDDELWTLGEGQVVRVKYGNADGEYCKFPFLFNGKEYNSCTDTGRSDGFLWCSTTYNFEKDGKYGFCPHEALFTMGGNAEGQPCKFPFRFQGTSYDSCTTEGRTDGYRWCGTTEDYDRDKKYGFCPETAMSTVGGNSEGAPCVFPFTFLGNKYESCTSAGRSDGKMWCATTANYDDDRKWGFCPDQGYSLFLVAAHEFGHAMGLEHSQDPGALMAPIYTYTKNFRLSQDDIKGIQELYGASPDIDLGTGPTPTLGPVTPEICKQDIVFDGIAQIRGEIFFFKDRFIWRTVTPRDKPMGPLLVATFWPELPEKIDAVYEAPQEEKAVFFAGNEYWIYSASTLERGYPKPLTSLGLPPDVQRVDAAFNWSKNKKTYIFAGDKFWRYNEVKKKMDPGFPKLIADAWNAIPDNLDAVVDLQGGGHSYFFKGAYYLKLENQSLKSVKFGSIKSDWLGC
# From the text: Recombinant MMP-2 was purified from the fermentation broth of yeast Pichia pastoris that carries the integrated MMP-2 gene into its chromosome. In brief, the full-length cDNA for MMP-2 was obtained by reverse transcription of RNA from human melanoma A375M cell line by the reverse transcriptase polymerase chain reaction (RT-PCR) using sequence specific oligonucleotides. The nucleotide sequence was confirmed by Taq cycle sequencing. The cDNA was ligated into the Pichia pastoris expression vector pHIL-D2 in such a way that the expression of pro-MMP-2 is under the control of the methanol inducible alcohol oxidase promoter. The expression construct was digested with either SalI or NsiI and used to transform the Pichia pastoris strains KM71 and SMD1 168. A large-scale culture of a selected clone designated 24S was performed in a high cell density fermentor and the recombinant MMP-2 was purified from the culture supernatant by gelatin-sepharose 4B (Pharmacia). The enzyme is sufficiently pure at this stage for routine measurement of inhibition. If desired, however, the enzyme may be further purified by AcA 44 gel filtration (Spectra).
# The active MMP-2 was obtained by activation of proMMP-2 at 37° C. for 1 h with 4-aminophenylmercuric acetate which was then removed by a Sephadex G-50 spin column. The enzyme is assayed using a fluorogenic substrate, Mca-Pro-Leu-Gly-Leu-Dpa-Ala-Arg-NH2, at 37° C. in 2.0 mL of assay buffer containing 50 mM Tris, pH 7.6, 0.2 M sodium chloride, 50 mM calcium chloride, 0.02% Brij-35, and 50 μM β-mercaptoethanol. The increase in fluorescence is monitored (λex 328 nm, λem 393 nm). Substrate and inhibitor stock solutions are made in DMF. The enzyme is added at the last to start the reaction. For routine measurement of a Ki value for a reversible, competitive inhibitor, the initial rates in the presence of at least four inhibitor concentrations (two inhibitor concentrations above Ki and two below Ki) are measured using [S]=1 μM (<<Km) and [MMP-2]=0.4 nM. Under these conditions, the measured Ki, app is close to true Ki.
# [3] = molecular target: MMP-14 (Homo sapiens, UniProt P50281); experiment: Ki app for MMP-14; conditions: footnote: results are identical for MMP-1, MMP-2, MMP-3, MMP-13 and MMP-14
# [4] = molecular target: MMP-13 (Homo sapiens, UniProt P45452); experiment: Ki app for MMP-13; conditions: footnote: results are identical for MMP-1, MMP-2, MMP-3, MMP-13 and MMP-14
# Sequence of MMP-8 (P22894 101-467): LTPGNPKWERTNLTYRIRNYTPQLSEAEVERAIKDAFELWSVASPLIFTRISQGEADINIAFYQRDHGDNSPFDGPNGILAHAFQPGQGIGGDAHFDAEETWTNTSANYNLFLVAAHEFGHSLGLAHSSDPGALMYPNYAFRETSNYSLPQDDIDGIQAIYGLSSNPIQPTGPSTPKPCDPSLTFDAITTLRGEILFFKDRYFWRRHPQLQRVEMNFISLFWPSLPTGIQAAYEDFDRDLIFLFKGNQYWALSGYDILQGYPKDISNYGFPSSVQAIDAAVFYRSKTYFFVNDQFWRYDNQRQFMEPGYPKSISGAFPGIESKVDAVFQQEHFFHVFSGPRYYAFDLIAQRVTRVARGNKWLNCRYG
SMILES,Ki [1] [µM],Ki [2] [µM],Ki [3] [µM],Ki [4] [µM]
"CNC(=O)[C@@H](Cc1cccnc1)NC(=O)[C@@H]1C(Cc2ccccc2)CCN1C(=O)[C@@H](S)C(C)C (stereo in doubt) [Compound 1f, (2S,3S)-3-Benzyl-1-((S)-2-mercapto-3-methyl-butanoyl)-pyrrolidine-2-carboxylic acid ((R)-1-methylcarbamoyl-2-pyridin-3-yl-ethyl)-amide]",> 10,> 10,> 10,> 10
"CNC(=O)[C@H](Cc1ccc(O)cc1)NC(=O)[C@@H]1[C@@H](Cc2ccccc2)CCN1C(=O)[C@@H](S)C(C)C [Compound 1a, (2S,3S)-3-Benzyl-1-((S)-2-mercapto-3-methyl-butanoyl)-pyrrolidine-2-carboxylic acid [(S)-2-(4-hydroxy-phenyl)-1-methylcarbamoyl-ethyl]-amide]",> 10,> 10,> 10,> 10
"CNC(=O)[C@H](Cc1ccc(O)cc1)NC(=O)[C@@H]1[C@H](Cc2ccccc2)CCN1C(=O)[C@@H](S)C(C)C [Compound 1b, (2S,3R)-3-Benzyl-1-((S)-2-mercapto-3-methyl-butanoyl)-pyrrolidine-2-carboxylic acid [(S)-2-(4-hydroxy-phenyl)-1-methylcarbamoyl-ethyl]-amide]",3,> 10,> 10,> 10
"CNC(=O)[C@H](Cc1cccnc1)NC(=O)[C@@H]1[C@@H](Cc2ccccc2)CCN1C(=O)[C@@H](S)C(C)C [Compound 1c, (2S,3S)-3-Benzyl-1-((S)-2-mercapto-3-methyl-butanoyl)-pyrrolidine-2-carboxylic acid ((S)-1-methylcarbamoyl-2-pyridin-3-yl-ethyl)-amide]",9,> 10,> 10,> 10
"CNC(=O)[C@H](Cc1cccnc1)NC(=O)[C@@H]1[C@H](Cc2ccccc2)CCN1C(=O)[C@@H](S)C(C)C [Compound 1d, (2S,3R)-3-Benzyl-1-((S)-2-mercapto-3-methyl-butanoyl)-pyrrolidine-2-carboxylic acid ((S)-1-methylcarbamoyl-2-pyridin-3-yl-ethyl)-amide]",4,> 10,> 10,> 10
"CNC(=O)[C@@H](Cc1cccnc1)NC(=O)[C@@H]1[C@@H](Cc2ccccc2)CCN1C(=O)[C@@H](S)C(C)C [Compound 1e, (2S,3S)-3-Benzyl-1-((S)-2-mercapto-3-methyl-butanoyl)-pyrrolidine-2-carboxylic acid ((R)-1-methylcarbamoyl-2-pyridin-3-yl-ethyl)-amide]",> 10,> 10,> 10,> 10
"CNC(=O)[C@@H](NC(=O)[C@@H]1[C@@H](Cc2ccccc2)CCN1C(=O)[C@@H](S)C(C)C)C(C)(C)C [Compound 1g, (2S,3S)-3-Benzyl-1-((S)-2-mercapto-3-methyl-butanoyl)-pyrrolidine-2-carboxylic acid ((S)-2,2-dimethyl-1-methylcarbamoyl-propyl)-amide]",> 10,> 10,> 10,> 10
"CNC(=O)[C@@H](NC(=O)[C@@H]1[C@H](Cc2ccccc2)CCN1C(=O)[C@@H](S)C(C)C)C(C)(C)C [Compound 1h, (2S,3R)-3-Benzyl-1-((S)-2-mercapto-3-methyl-butanoyl)-pyrrolidine-2-carboxylic acid ((S)-2,2-dimethyl-1-methylcarbamoyl-propyl)-amide]",3,> 10,> 10,> 10

# From patent publication US6486193B2, “3-substituted pyrrolidines useful as inhibitors of matrix metalloproteinases” (Aventis Pharmaceuticals Inc., priority 1998, dated 2002)
